Columns and labels:
[1] = xn = mol fraction of the nth substance listed
[2] = refractive index (Na D-line) (dimensionless); xn = mol fraction of the nth substance listed; conditions: 100.5 kPa, Liquid, Standard Abbe refractometry

CCCCCCCC(=O)OCC [ethyl octanoate] + CCO
Conditions	refractive index, 288.15 K	refractive index, 298.15 K	refractive index, 308.15 K	refractive index, 318.15 K	surface tension liquid-gas, 288.15 K [mN/m]	surface tension liquid-gas, 298.15 K [mN/m]	surface tension liquid-gas, 308.15 K [mN/m]	surface tension liquid-gas, 318.15 K [mN/m]
[1], x1 = 0.05	–	–	–	–	23.6	22.9	22	21.1
[1], x1 = 0.1	–	–	–	–	24	23.3	22.5	21.6
[1], x1 = 0.15	–	–	–	–	24.4	23.7	22.8	21.9
[1], x1 = 0.2	–	–	–	–	24.8	24	23.2	22.3
[1], x1 = 0.25	–	–	–	–	25.1	24.3	23.4	22.6
[1], x1 = 0.3	–	–	–	–	25.3	24.5	23.7	22.8
[1], x1 = 0.35	–	–	–	–	25.5	24.8	23.9	23
[1], x1 = 0.4	–	–	–	–	25.7	24.9	24.1	23.2
[1], x1 = 0.45	–	–	–	–	25.9	25.1	24.2	23.4
[1], x1 = 0.5	–	–	–	–	26.1	25.3	24.4	23.5
[1], x1 = 0.55	–	–	–	–	26.2	25.4	24.5	23.7
[1], x1 = 0.6	–	–	–	–	26.3	25.6	24.7	23.8
[1], x1 = 0.65	–	–	–	–	26.5	25.7	24.8	24
[1], x1 = 0.7	–	–	–	–	26.6	25.8	24.9	24.1
[1], x1 = 0.75	–	–	–	–	26.7	25.9	25	24.2
[1], x1 = 0.8	–	–	–	–	26.8	26	25.1	24.3
[1], x1 = 0.85	–	–	–	–	26.9	26.1	25.2	24.4
[1], x1 = 0.9	–	–	–	–	27	26.2	25.3	24.5
[1], x1 = 0.95	–	–	–	–	27.1	26.3	25.4	24.6
[1], x1 = 1	–	–	–	–	27.2	26.4	25.5	24.7
[2], x1 = 0.05	1.37185	1.36779	1.36356	1.35953	–	–	–	–
[2], x1 = 0.1	1.37876	1.37462	1.37036	1.36625	–	–	–	–
[2], x1 = 0.15	1.38444	1.38028	1.37601	1.37184	–	–	–	–
[2], x1 = 0.2	1.38922	1.38502	1.38074	1.37654	–	–	–	–
[2], x1 = 0.25	1.39327	1.38905	1.38477	1.38054	–	–	–	–
[2], x1 = 0.3	1.39676	1.39252	1.38823	1.38398	–	–	–	–
[2], x1 = 0.35	1.39979	1.39553	1.39125	1.38698	–	–	–	–
[2], x1 = 0.4	1.40245	1.39818	1.39389	1.38961	–	–	–	–
[2], x1 = 0.45	1.40481	1.40053	1.39624	1.39195	–	–	–	–
[2], x1 = 0.5	1.40692	1.40263	1.39835	1.39403	–	–	–	–
[2], x1 = 0.55	1.40882	1.40451	1.40023	1.39591	–	–	–	–
[2], x1 = 0.6	1.41053	1.40621	1.40193	1.3976	–	–	–	–
[2], x1 = 0.65	1.41208	1.40776	1.40348	1.39914	–	–	–	–
[2], x1 = 0.7	1.4135	1.40917	1.40489	1.40054	–	–	–	–
[2], x1 = 0.75	1.4148	1.41047	1.40619	1.40183	–	–	–	–
[2], x1 = 0.8	1.41599	1.41166	1.40739	1.40302	–	–	–	–
[2], x1 = 0.85	1.41709	1.41276	1.4085	1.40412	–	–	–	–
[2], x1 = 0.9	1.4181	1.41378	1.40952	1.40515	–	–	–	–
[2], x1 = 0.95	1.41904	1.41472	1.41047	1.40611	–	–	–	–
[2], x1 = 1	1.41991	1.4156	1.41137	1.40702	–	–	–	–

Reference: the NIST ThermoML archive (doi:10.1021/je0601208)
